Laboratory results from PubChem BioAssay AID248 (DTP/NCI, 2004).
Several values for one entry are separate records, joined by “and”; a condition that tells them apart may be missing. Equal entries are not always repeated. Inconclusive results and toxic doses are left out. No stated cut-off is given here; in the data, active means T/C of 150% or more; inactive means T/C below 125%.

System: L1210 leukemia ip in BDF1 mice, survival T/C
Test: NCI In Vivo Anticancer Drug Screen. Data for tumor model L1210 Leukemia (intraperitoneal) in B6D2F1 (BDF1) mice
Conditions: endpoint: mean survival time, higher = longer survival
Procedure, shortened: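 Tumor cells were implanted, animals were treated, and survival was followed. The result divides the treated measurement by the vehicle-control measurement.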

[1] = dose: 100.0 mg/kg/injection, schedule: Q04DX003 (ip), vehicle: Klucel (hydroxypropylcellulose) (HPC)
[2] = dose: 200.0 mg/kg/injection, schedule: Q04DX003 (ip), vehicle: Klucel (hydroxypropylcellulose) (HPC)
[3] = dose: 100.0 mg/kg/injection, schedule: Q01DX001 (ip), vehicle: saline with Tween-80
[4] = dose: 100.0 mg/kg/injection, schedule: Q04DX003 (ip), vehicle: saline
[5] = dose: 200.0 mg/kg/injection, schedule: Q04DX003 (ip), vehicle: saline
[6] = dose: 400.0 mg/kg/injection, schedule: Q04DX003 (ip), vehicle: saline
[7] = dose: 100.0 mg/kg/injection, schedule: Q01DX009 (ip), vehicle: saline with Tween-80
[8] = dose: 200.0 mg/kg/injection, schedule: Q01DX009 (ip), vehicle: saline with Tween-80
[9] = dose: 12.5 mg/kg/injection, schedule: Q01DX009 (ip), vehicle: Klucel (hydroxypropylcellulose) (HPC)
[10] = dose: 25.0 mg/kg/injection, schedule: Q01DX009 (ip), vehicle: Klucel (hydroxypropylcellulose) (HPC)
[11] = dose: 50.0 mg/kg/injection, schedule: Q01DX009 (ip), vehicle: Klucel (hydroxypropylcellulose) (HPC)
[12] = dose: 100.0 mg/kg/injection, schedule: Q04DX003 (ip), vehicle: saline with Tween-80
[13] = dose: 100.0 mg/kg/injection, schedule: Q04DX002 (ip), vehicle: saline
[14] = dose: 200.0 mg/kg/injection, schedule: Q04DX002 (ip), vehicle: saline
[15] = dose: 400.0 mg/kg/injection, schedule: Q04DX002 (ip), vehicle: saline

Measured: T/C

CCCCNC(=O)NC/C(Br)=C/Br
inactive: dose: 75.0 mg/kg/injection, schedule: Q01DX009 (ip), vehicle: Klucel (hydroxypropylcellulose) (HPC) 101 % of control | [1] 98 % of control | dose: 150.0 mg/kg/injection, schedule: Q01DX009 (ip), vehicle: Klucel (hydroxypropylcellulose) (HPC) 100 % of control | [2] 96 % of control | dose: 300.0 mg/kg/injection, schedule: Q01DX009 (ip), vehicle: Klucel (hydroxypropylcellulose) (HPC) 97 % of control | dose: 400.0 mg/kg/injection, schedule: Q04DX003 (ip), vehicle: Klucel (hydroxypropylcellulose) (HPC) 93 % of control

IC#Cc1ccccc1
inactive: [3] 112 % of control | dose: 200.0 mg/kg/injection, schedule: Q01DX001 (ip), vehicle: saline with Tween-80 105 % of control | dose: 400.0 mg/kg/injection, schedule: Q01DX001 (ip), vehicle: saline with Tween-80 105 % of control

CCO/C=N/c1oc(-c2ccccc2)nc1C#N
inactive: dose: 100.0 mg/kg/injection, schedule: Q04DX002 (ip), vehicle: Klucel (hydroxypropylcellulose) (HPC) 91 % of control | dose: 200.0 mg/kg/injection, schedule: Q04DX002 (ip), vehicle: Klucel (hydroxypropylcellulose) (HPC) 96 % of control

O=S(=O)(c1ccccc1)C1CC(Cl)C1 (stereo unspecified)
inactive: [4] 109 % of control | [5] 98 % of control | [6] 97 % of control

S=C1NC(c2cccs2)N2C(=S)NC(c3cccs3)N12 (stereo unspecified)
inactive: dose: 100.0 mg/kg/injection, schedule: Q01DX009 (ip), vehicle: gum acacia 96 % of control | dose: 100.0 mg/kg/injection, schedule: Q04DX003 (ip), vehicle: gum acacia 92 % of control | dose: 200.0 mg/kg/injection, schedule: Q01DX009 (ip), vehicle: gum acacia 91 % of control | dose: 200.0 mg/kg/injection, schedule: Q04DX003 (ip), vehicle: gum acacia 97 % of control | dose: 400.0 mg/kg/injection, schedule: Q01DX009 (ip), vehicle: gum acacia 98 % of control | dose: 400.0 mg/kg/injection, schedule: Q04DX003 (ip), vehicle: gum acacia 97 % of control

CCCc1ccc(C(=O)O)cc1
inactive: dose: 100.0 mg/kg/injection, schedule: Q01DX009 (ip), vehicle: Klucel (hydroxypropylcellulose) (HPC) 95 % of control | dose: 200.0 mg/kg/injection, schedule: Q01DX009 (ip), vehicle: Klucel (hydroxypropylcellulose) (HPC) 91 % of control | dose: 400.0 mg/kg/injection, schedule: Q01DX009 (ip), vehicle: Klucel (hydroxypropylcellulose) (HPC) 98 % of control

Cn1c(N)c(C(=O)CCCc2ccc(N(CCCl)CCCl)cc2)c(=O)n(C)c1=O
inactive: dose: 50.0 mg/kg/injection, schedule: Q01DX001 (ip), vehicle: carboxymethylcellulose (CMC) 102 % of control | dose: 100.0 mg/kg/injection, schedule: Q01DX001 (ip), vehicle: carboxymethylcellulose (CMC) 107 % of control | dose: 200.0 mg/kg/injection, schedule: Q01DX001 (ip), vehicle: carboxymethylcellulose (CMC) 105 % of control | dose: 400.0 mg/kg/injection, schedule: Q01DX001 (ip), vehicle: carboxymethylcellulose (CMC) 102 % of control

CCCCOCN(C(=O)CCl)c1c(CC)cccc1CC
inactive: [7] 101 % of control | [8] 110 % of control | dose: 400.0 mg/kg/injection, schedule: Q01DX009 (ip), vehicle: saline with Tween-80 89 % of control

COC(=O)Nc1ccccc1[N+](=O)[O-]
inactive: dose: 100.0 mg/kg/injection, schedule: Q04DX003 (ip), vehicle: other 103 % of control | dose: 200.0 mg/kg/injection, schedule: Q04DX003 (ip), vehicle: other 101 % of control | dose: 400.0 mg/kg/injection, schedule: Q04DX003 (ip), vehicle: other 111 % of control

C=CCNC(=S)Nc1c(C)cc(C)cc1C
inactive: [9] 102 % of control | [10] 97 % of control | [11] 103 % of control

O=C1CCC(C(=O)O)N1 (stereo unspecified)
inactive: dose: 50.0 mg/kg/injection, schedule: Q01DX009 (ip), vehicle: saline with Tween-80 94 % of control | [7] 94 % of control | [12] 97 % of control | [8] 86 % of control | dose: 200.0 mg/kg/injection, schedule: Q04DX003 (ip), vehicle: saline with Tween-80 91 % of control

Cc1c(NCO)c(=O)n(-c2ccccc2)n1C
inactive: [4] 118 % of control | [5] 94 % of control | [6] 112 % of control

CN(C)c1ccc(N(C)C)nn1
inactive: [7] 104 % of control

CC(=O)c1csc2ccccc12
inactive: [9] 106 % of control | [10] 101 % of control | [11] 106 % of control

O/N=c1/cc(-c2cccs2)ss1
inactive: dose: 50.0 mg/kg/injection, schedule: Q01DX009 (ip), vehicle: saline 86 % of control | dose: 100.0 mg/kg/injection, schedule: Q01DX009 (ip), vehicle: saline 86 % of control | [4] 87 % of control | dose: 200.0 mg/kg/injection, schedule: Q01DX009 (ip), vehicle: saline 98 % of control | [5] 95 % of control | [6] 95 % of control

CC1C(C(=O)c2ccc(-c3ccccc3)cc2)N1C(C)(C)C (stereo unspecified)
inactive: dose: 100.0 mg/kg/injection, schedule: Q01DX001 (ip), vehicle: Klucel (hydroxypropylcellulose) (HPC) 87 % of control | dose: 200.0 mg/kg/injection, schedule: Q01DX001 (ip), vehicle: Klucel (hydroxypropylcellulose) (HPC) 93 % of control | dose: 400.0 mg/kg/injection, schedule: Q01DX001 (ip), vehicle: Klucel (hydroxypropylcellulose) (HPC) 94 % of control

CC(=O)NC(CC(N)=O)C(=O)O (stereo unspecified)
inactive: [13] 96 % of control | [14] 99 % of control | [15] 99 % of control

CSc1ccc(NC(=O)Nc2ccc(C(=O)NCC(=O)O)cc2)cc1
inactive: dose: 25.0 mg/kg/injection, schedule: Q01DX009 (ip), vehicle: saline with Tween-80 102 % of control and 92 % of control | dose: 25.0 mg/kg/injection, schedule: Q04DX003 (ip), vehicle: saline with Tween-80 96 % of control | dose: 50.0 mg/kg/injection, schedule: Q04DX003 (ip), vehicle: saline with Tween-80 105 % of control | [3] 97 % of control | dose: 100.0 mg/kg/injection, schedule: Q04DX002 (ip), vehicle: saline with Tween-80 96 % of control and 91 % of control | [12] 110 % of control | dose: 200.0 mg/kg/injection, schedule: Q04DX002 (ip), vehicle: saline with Tween-80 94 % of control and 99 % of control

CCN(CC)c1ccc(-c2nc3ccccc3s2)cc1
inactive: dose: 50.0 mg/kg/injection, schedule: Q04DX003 (ip), vehicle: Klucel (hydroxypropylcellulose) (HPC) 99 % of control | [1] 94 % of control | [2] 91 % of control

Cc1nc2ccccc2s1
inactive: [13] 106 % of control | [14] 98 % of control | [15] 102 % of control

CCOC(=O)c1cc([N+](=O)[O-])cnc1C
inactive: dose: 100.0 mg/kg/injection, schedule: Q01DX001 (ip), vehicle: saline sonified 96 % of control | dose: 200.0 mg/kg/injection, schedule: Q01DX001 (ip), vehicle: saline sonified 96 % of control | dose: 400.0 mg/kg/injection, schedule: Q01DX001 (ip), vehicle: saline sonified 97 % of control
